Where two headings read alike, the source gives them in different places. Some results are limits rather than exact numbers.

The test system of test [1] is Hedgehog pathway activation on 10T1/2/Smo#3 cells (C3H10T1/2 cells transfected with human Smoothened receptor). Kind of test: Hedgehog pathway activation on 10T1/2/Smo#3 cells measured by ALP activity. The test is classed as cell-based. As to conditions: Mus musculus, C3H 10T1/2, 10T1/2/Smo#3 cells. The method, boiled down:
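Inhibition of alkaline phosphatase induction, read fluorometrically from 4-methylumbelliferyl phosphate conversion, gave IC50 values; CellTiter-Blue tracked viability in parallel. Cells were the human Smo-transfected 10T1/2/Smo#3 pool, stimulated by 10-20% hShh conditioned medium or the Smo agonist SAG (500 nM).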

Test [2] relates to Hedgehog pathway activation (GLi-luciferase reporter) in Shh Light II reporter cells. Description: Hedgehog pathway activation on Shh Light II reporter cells measured by luciferase activity. The class given is cell-based. As to conditions: Mus musculus, Shh Light II. The method, boiled down: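 Shh Light II reporter cells carrying a hedgehog-responsive GLi-luciferase reporter were stimulated either with 500 nM SAG, a direct Smoothened agonist, or with conditioned media containing human Sonic Hedgehog (hShh). Test compounds were evaluated for blocking this pathway activation, quantified by luciferase activity. Cell viability was monitored in parallel with the Celltiter-Blue® assay.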

The mark [3] stands for this setting: measured by ALP activity, read-out: ALP (IC50, inhibition of Hedgehog pathway activation).
[4] abbreviates: hShh activation, read-out: Shh (IC50, inhibition of Hedgehog pathway activation).
[5] abbreviates: hShh activation, ALP activity, read-out: 10T1/2/Smo#3 ALP activity (hShh Activation).
Setting [6] is: SAG activation (500 nM SAG), read-out: Shh Light II luciferase activity (SAG activation).
Where [7] appears, read: hShh activation, read-out: Shh Light II luciferase activity (hShh activation).

For the molecule `Cc1cc(Cl)c(-c2cn3nc(Cl)ccc3n2)cc1NC(=O)C(C)(C)C` [Example 131, N-(4-chloro-5-(6-chloroimidazo[1,2-b]pyridazin-2-yl)-2-methylphenyl)pivalamide], the results for the IC50 in test [1] (setting [3]) and in test [2] (setting [4]) were 8280 nM and 1450 nM, respectively.
The matching figures for `CC(C)(C)C(=O)Nc1cc(-c2cn3nc(OC4CCOCC4)ccc3n2)ccc1C(F)(F)F` [Example 310, N-(5-(6-(tetrahydro-2H-pyran-4-yloxy)imidazo[1,2-b]pyridazin-2-yl)-2-(trifluoromethyl)phenyl)pivalamide]: 1780 nM and 721 nM.
The matching figures for `CN(C)C1CCN(c2ccc3nc(-c4ccc(C(F)(F)F)c(NC(=O)C(C)(C)C)c4)cn3n2)C1` (stereo not drawn) [Example 350, N-(5-(6-(3-(dimethylamino)pyrrolidin-1-yl)imidazo[1,2-b]pyridazin-2-yl)-2-(trifluoromethyl)phenyl)pivalamide]: 28 nM and 65 nM.
The matching figures for `CCNC1CCN(c2ccc3nc(-c4ccc(C)c(NC(=O)C(C)(C)C)c4)cn3n2)C1` (stereo not drawn) [Example 474, N-(5-(6-(3-(ethylamino)pyrrolidin-1-yl)imidazo[1,2-b]pyridazin-2-yl)-2-methylphenyl)pivalamide]: 34 nM and 31 nM.
Turning to `COc1ccc2nc(-c3ccc(C)c(NC(=O)c4ccc(F)cc4Cl)c3)cn2n1` [Example 98, 2-chloro-4-fluoro-N-(5-(6-methoxyimidazo[1,2-b]pyridazin-2-yl)-2-methylphenyl)benzamide], the IC50 worked out at 2040 nM in test [1] (setting [3]) and 1340 nM in test [2] (setting [4]).
The matching figures for `CC(C)(C)C(=O)Nc1cc(-c2cn3nc(-c4ccc(C(F)(F)F)cc4)ccc3n2)ccc1C(F)(F)F` [Example 210, N-(2-(trifluoromethyl)-5-(6-(4-(trifluoromethyl)phenyl)imidazo[1,2-b]pyridazin-2-yl)phenyl)pivalamide]: 375 nM and 223 nM.
For `CCN(CC)C(=O)Nc1cc(-c2cn3nc(-c4cccnc4C(F)(F)F)ccc3n2)ccc1Cl` [Example 655, 3-(2-chloro-5-(6-(2-(trifluoromethyl)pyridin-3-yl)imidazo[1,2-b]pyridazin-2-yl)phenyl)-1,1-diethylurea], the IC50 in test [1] (setting [5]) is below 300 nM; in test [1] (setting [3]), 70 nM; in test [2] (setting [6]), below 300 nM; in test [2] (setting [4]), 23 nM; in test [2] (setting [7]), below 300 nM.
With `Cc1ccc(-c2nc3ccc(N4CCC(O)CC4)nn3c2C)cc1NC(=O)C(C)(C)C` [Example 313, N-(5-(6-(4-hydroxypiperidin-1-yl)-3-methylimidazo[1,2-b]pyridazin-2-yl)-2-methylphenyl)pivalamide], the IC50 was 300 to 3000 nM in test [1] (setting [5]); 636 nM in test [1] (setting [3]); 300 to 3000 nM in test [2] (setting [6]); 826 nM in test [2] (setting [4]); 300 to 3000 nM in test [2] (setting [7]).
For the molecule `Cc1ccc(-c2cn3nc(N4CCC(C#N)CC4)ccc3n2)cc1NC(=O)C(C)(C)C` [compound 544], the IC50 was found to be 462 nM in test [1] (setting [3]) and 224 nM in test [2] (setting [4]).
The matching figures for `CC(C)(C)C(=O)Nc1cc(-c2cn3nc(-c4cnccc4Cl)ccc3n2)ccc1C(F)(F)F` [Example 386, N-(5-(6-(4-chloropyridin-3-yl)imidazo[1,2-b]pyridazin-2-yl)-2-(trifluoromethyl)phenyl)pivalamide]: 1710 nM and 3090 nM.
The matching figures for `CCOc1ccc2nc(-c3ccc(C(F)(F)F)c(S(=O)(=O)NC(C)(C)C)c3)cn2n1` [Example 216, N-tert-butyl-5-(6-ethoxyimidazo[1,2-b]pyridazin-2-yl)-2-(trifluoromethyl)benzenesulfonamide]: 8280 nM and 8570 nM.
The matching figures for `Cc1ccc(-c2cn3nc(-c4cccc(O)c4)ccc3n2)cc1NC(=O)C(C)(C)C` [Example 264, N-(5-(6-(3-hydroxyphenyl)imidazo[1,2-b]pyridazin-2-yl)-2-methylphenyl)pivalamide]: 544 nM and 2010 nM.
In the case of `CC(C)(C)C(=O)Nc1cc(-c2cn3nc(-c4cccnc4Cl)ccc3n2)ccc1C(F)(F)F` [Example 334, N-(5-(6-(2-chloropyridin-3-yl)imidazo[1,2-b]pyridazin-2-yl)-2-(trifluoromethyl)phenyl)pivalamide], the IC50 in test [1] (setting [3]) was 213 nM; in test [2] (setting [4]) it was 278 nM.
The matching figures for `Cc1ccc(-c2cn3nc(NS(=O)(=O)c4cccc(C=CC(=O)NO)c4)ccc3n2)cc1NC(=O)C(C)(C)C` [compound 606]: 484 nM and 66 nM.
Take `CC1CN(C2CCN(c3ccc4nc(-c5ccc(C(F)(F)F)c(NC(=O)C(C)(C)C)c5)cn4n3)CC2)CC(C)O1` (stereo not drawn) [Example 370, N-(5-(6-(4-(2,6-dimethylmorpholino)piperidin-1-yl)imidazo[1,2-b]pyridazin-2-yl)-2-(trifluoromethyl)phenyl)pivalamide]: the figures for the IC50 in test [1] (setting [3]) and in test [2] (setting [4]) were 333 nM and 321 nM, respectively.
Consider `Cc1ccc(-c2cn3ncccc3n2)cc1NC(=O)C(C)(C)C` [Example 105, N-(5-(imidazo[1,2-b]pyridazin-2-yl)-2-methylphenyl)pivalamide], for which the IC50 in test [1] (setting [5]) was 300 to 3000 nM; in test [1] (setting [3]), 1810 nM; in test [2] (setting [6]), 3000 to 30000 nM; in test [2] (setting [4]), 1110 nM; in test [2] (setting [7]), 300 to 3000 nM.
Take `COc1ccc2nc(-c3ccc(Cl)c(NC(=O)C(C)(C)C)c3)cn2n1` [Example 110, N-(2-chloro-5-(6-methoxyimidazo[1,2-b]pyridazin-2-yl)phenyl)pivalamide]: the values for the IC50 in test [1] (setting [3]) and in test [2] (setting [4]) were 8040 nM and above 10000 nM, respectively.
The matching figures for `CC(C)(C)C(=O)Nc1cc(-c2cn3nc(N4CCCC(CO)C4)ccc3n2)ccc1C(F)(F)F` (stereo not drawn) [Example 354, N-(5-(6-(3-(hydroxymethyl)piperidin-1-yl)imidazo[1,2-b]pyridazin-2-yl)-2-(trifluoromethyl)phenyl)pivalamide]: 554 nM and 332 nM.
`Cc1ccc(-c2cn3nc(-c4csc(N5CCOCC5)n4)ccc3n2)cc1NC(=O)C(C)(C)C` [Example 448, N-(2-methyl-5-(6-(2-morpholinothiazol-4-yl)imidazo[1,2-b]pyridazin-2-yl)phenyl)pivalamide]: the IC50 in test [1] (setting [3]) is 643 nM; in test [2] (setting [4]) it was 1280 nM.
The matching figures for `Cc1ncccc1-c1ccc2nc(-c3ccc(C(F)(F)F)c(NC(=O)C(C)(C)C)c3)cn2n1` [Example 293, N-(5-(6-(2-methylpyridin-3-yl)imidazo[1,2-b]pyridazin-2-yl)-2-(trifluoromethyl)phenyl)pivalamide]: 221 nM and 310 nM.
The matching figures for `Cc1ccc(-c2cn3nc(-c4cc(F)ccc4F)ccc3n2)cc1NC(=O)C(C)(C)C` [Example 261, N-(5-(6-(2,5-difluorophenyl)imidazo[1,2-b]pyridazin-2-yl)-2-methylphenyl)pivalamide]: 91 nM and 142 nM.
With `Cc1ccc(-c2cn3nc(-c4ccc(C(=O)NO)cc4C(F)(F)F)ccc3n2)cc1NC(=O)C(C)(C)C` [Example 437, N-hydroxy-4-(2-(4-methyl-3-pivalamidophenyl)imidazo[1,2-b]pyridazin-6-yl)-3-(trifluoromethyl)benzamide], the IC50 in test [1] (setting [5]) is below 300 nM; in test [1] (setting [3]) it was 150 nM; in test [2] (setting [6]), below 300 nM; in test [2] (setting [4]) it was 71 nM; in test [2] (setting [7]) it was below 300 nM.
With `Cc1ccc(-c2cn3nc(-c4ccnc(F)c4)ccc3n2)cc1NC(=O)C(C)(C)C` [Example 365, N-(5-(6-(2-fluoropyridin-4-yl)imidazo[1,2-b]pyridazin-2-yl)-2-methylphenyl)pivalamide], the IC50 turned out to be 360 nM in test [1] (setting [3]) and 124 nM in test [2] (setting [4]).
The matching figures for `CC(C)(C)C(=O)Nc1cc(-c2cn3nc(OCCO)ccc3n2)ccc1C(F)(F)F` [Example 377, N-(5-(6-(2-hydroxyethoxy)imidazo[1,2-b]pyridazin-2-yl)-2-(trifluoromethyl)phenyl)pivalamide]: 704 nM and 657 nM.
The matching figures for `CC(C)(C)C(=O)Nc1cc(-c2cn3nc(-c4cccnc4C(F)(F)F)ccc3n2)c(F)cc1F` [Example 652, N-(2,4-difluoro-5-(6-(2-(trifluoromethyl)pyridin-3-yl)imidazo[1,2-b]pyridazin-2-yl)phenyl)pivalamide]: 36 nM and 34 nM.
As to `CCOc1ccc2nc(-c3ccc(C(F)(F)F)c(Br)c3)cn2n1` [Example 204, 2-(3-bromo-4-(trifluoromethyl)phenyl)-6-ethoxyimidazo[1,2-b]pyridazine], the IC50 in test [1] (setting [5]) is 3000 to 30000 nM; in test [1] (setting [3]), 9530 nM; in test [2] (setting [6]) it was 3000 to 30000 nM; in test [2] (setting [4]), above 10000 nM; in test [2] (setting [7]) it was 3000 to 30000 nM.
Consider `Cc1ccc(-c2cn3nc(N4CCC(C(N)=O)CC4)ccc3n2)cc1NC(=O)C(C)(C)C` [compound 542], for which the IC50 was below 300 nM in test [1] (setting [5]); 88 nM in test [1] (setting [3]); 300 to 3000 nM in test [2] (setting [6]); 94 nM in test [2] (setting [4]); below 300 nM in test [2] (setting [7]).

Values taken from patent US8871767B2, “2-arylimidazo[1,2-B]pyridazine, 2-phenylimidazo[1,2-A]pyridine, and 2-phenylimidazo[1,2-A]pyrazine derivatives” (Hengrui (USA) Ltd., priority 2010, dated 2014).
